From patent EP2100602A1, “Method and compositions suitable for treatment of wounds” (QuoNova Europe GmbH, priority 2008, dated 2009)

System: Pseudomonas aeruginosa
Experiment: Porcine second degree burn wound model infected with Pseudomonas aeruginosa; flush culture (planktonic) and scrub culture (biofilm) counts
Format: in vivo
Conditions: pig burn wounds; for reduction of counts of planktonic P. aeruginosa: ointment without SSD; for reduction of biofilm bacteria: treatment within 20 minutes of inoculation, compared to the vehicle control, SSD not printed for these labels
[1] = used within 20 minutes of wound inoculation

Row | Compound | reduction of counts of planktonic P. aeruginosa (used on established biofilms) | reduction of counts of planktonic P. aeruginosa [1] | reduction of biofilm bacteria | reduction of biofilm P. aeruginosa (without SSD, used within 20 minutes)
1 | Cn1nc(C(C)(C)C)cc1C(=O)NNC(=O)c1ccc(Cl)s1 [Compound 1] | largest reduction | largest reduction | 2 Log | 1 Log
2 | CCCCCCCCCC(=O)CC(=O)Nc1cc(C)ns1 [Compound 2] |  | lower counts | 1.5 Log | 
3 | CCCCCCCCCC(=O)CC(=O)N(C)c1ccc(F)cc1 [Compound 3] |  | lower counts |  | 
